Data: US6413541B1, “Disintegrating tablet in oral cavity and production thereof” (Dainippon Pharmaceutical Co., Ltd., priority 2000, dated 2002)
Like-named read-outs stand apart in the source and are kept apart here.

Columns and labels:
[1] = Description: These saccharides can be used alone or in a mixture of two or more of these saccharides, and can usually be contained in an amount of about 0.1 to about 20% by weight, preferably in an amount of about 0.5 to about 10% by weight in the present tablet.
Purified water at 25° C. (20 ml) was put into a beaker, and thereto was added each saccharide under stirring. Xylitol, sorbitol, glucose and sucrose were added in portions of 1 g, and erythritol was added in portions of 0.5 g, and lactose and mannitol were added in portions of 0.1 g, each. The mixture was stirred for one hour, and the dissolved amount of each saccharide was determined. The amount dissolving in 100 ml of water was converted and used as solubility of the saccharide in the present specification.

[2] = in 100 ml of purified water at about 25° C.; Merck Index, 12th ed., 10220 (1996); cited from earlier work

Row | SMILES | solubility [1] | solubility [2]
1 | OC[C@@H](O)[C@@H](O)[C@H](O)[C@@H](O)CO [sorbitol] | about 130 g | –
2 | OC[C@H]1O[C@@](CO)(O[C@H]2O[C@H](CO)[C@@H](O)[C@H](O)[C@H]2O)[C@@H](O)[C@@H]1O [sucrose] | about 170 g | –
3 | O=C[C@H](O)[C@@H](O)[C@H](O)CO [xylose] | – | about 125 g

Continued, in another order:

Row | solubility [1] | SMILES | solubility [2]
4 | about 47.5 g | OC[C@@H](O)[C@@H](O)CO [erythritol] | –
5 | about 135 g | OC[C@@H](O)[C@H](O)[C@@H](O)CO [xylitol] | –
